In ChEMBL document CHEMBL1131616, “TROTEC-1: a new high-affinity ligand for labeling of the dopamine transporter” (J Med Chem, 1998):

Tests used:
[1] = target: Sodium-dependent noradrenaline transporter (Homo sapiens, UniProt P23975); assay: The compound was tested in vitro for binding affinity for the norepinephrine transporter (NET) using competitive binding assay.
[2] = target: Sodium-dependent serotonin transporter (Homo sapiens, UniProt P31645); assay: The compound was tested in vitro for binding affinity for the serotonin transporter (5-HTT) using competitive binding assay.
Chain of Sodium-dependent serotonin transporter (P31645 whole entry): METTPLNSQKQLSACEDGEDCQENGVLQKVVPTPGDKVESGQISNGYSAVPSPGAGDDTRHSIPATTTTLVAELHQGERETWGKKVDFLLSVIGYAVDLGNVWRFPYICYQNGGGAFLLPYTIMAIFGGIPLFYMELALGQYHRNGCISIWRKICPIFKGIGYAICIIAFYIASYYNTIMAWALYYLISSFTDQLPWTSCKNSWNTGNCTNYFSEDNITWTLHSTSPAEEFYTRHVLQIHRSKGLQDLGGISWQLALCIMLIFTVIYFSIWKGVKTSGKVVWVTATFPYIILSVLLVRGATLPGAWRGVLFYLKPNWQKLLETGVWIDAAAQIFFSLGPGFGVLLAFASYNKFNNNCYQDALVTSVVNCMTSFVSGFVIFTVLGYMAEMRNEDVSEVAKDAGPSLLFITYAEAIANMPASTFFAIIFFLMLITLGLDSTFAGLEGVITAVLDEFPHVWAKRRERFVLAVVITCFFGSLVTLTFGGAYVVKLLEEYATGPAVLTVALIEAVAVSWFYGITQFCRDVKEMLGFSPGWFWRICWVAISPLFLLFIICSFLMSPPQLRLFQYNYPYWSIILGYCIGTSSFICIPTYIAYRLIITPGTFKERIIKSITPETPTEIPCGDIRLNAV

[3] = target: T1, Sodium-dependent dopamine transporter (Homo sapiens, UniProt Q01959); assay: The compound was tested in vitro for high binding affinity for the Dopamine transporter (DAT) using competitive binding assay.
T1 sequence (Q01959 whole entry): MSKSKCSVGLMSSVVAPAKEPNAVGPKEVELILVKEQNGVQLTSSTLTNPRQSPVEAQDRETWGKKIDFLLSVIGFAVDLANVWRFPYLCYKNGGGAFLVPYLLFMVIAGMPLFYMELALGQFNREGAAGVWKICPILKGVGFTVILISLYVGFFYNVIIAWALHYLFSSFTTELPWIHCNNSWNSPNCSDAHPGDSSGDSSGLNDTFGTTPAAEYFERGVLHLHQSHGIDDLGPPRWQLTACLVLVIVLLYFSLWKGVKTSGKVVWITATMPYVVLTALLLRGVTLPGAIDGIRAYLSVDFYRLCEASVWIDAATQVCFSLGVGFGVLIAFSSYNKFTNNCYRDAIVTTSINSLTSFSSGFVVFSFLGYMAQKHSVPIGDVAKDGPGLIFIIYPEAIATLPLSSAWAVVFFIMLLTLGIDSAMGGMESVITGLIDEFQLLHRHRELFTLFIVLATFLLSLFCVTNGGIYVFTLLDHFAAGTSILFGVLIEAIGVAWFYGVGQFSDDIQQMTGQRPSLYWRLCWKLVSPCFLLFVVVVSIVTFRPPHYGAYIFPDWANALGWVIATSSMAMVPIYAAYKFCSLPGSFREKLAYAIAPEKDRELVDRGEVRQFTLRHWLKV

[4] = target: T1, Sodium-dependent dopamine transporter; assay: The compound was tested in vitro for low binding affinity for the Dopamine transporter (DAT) using competitive binding assay.

Chain of Sodium-dependent noradrenaline transporter (P23975 whole entry): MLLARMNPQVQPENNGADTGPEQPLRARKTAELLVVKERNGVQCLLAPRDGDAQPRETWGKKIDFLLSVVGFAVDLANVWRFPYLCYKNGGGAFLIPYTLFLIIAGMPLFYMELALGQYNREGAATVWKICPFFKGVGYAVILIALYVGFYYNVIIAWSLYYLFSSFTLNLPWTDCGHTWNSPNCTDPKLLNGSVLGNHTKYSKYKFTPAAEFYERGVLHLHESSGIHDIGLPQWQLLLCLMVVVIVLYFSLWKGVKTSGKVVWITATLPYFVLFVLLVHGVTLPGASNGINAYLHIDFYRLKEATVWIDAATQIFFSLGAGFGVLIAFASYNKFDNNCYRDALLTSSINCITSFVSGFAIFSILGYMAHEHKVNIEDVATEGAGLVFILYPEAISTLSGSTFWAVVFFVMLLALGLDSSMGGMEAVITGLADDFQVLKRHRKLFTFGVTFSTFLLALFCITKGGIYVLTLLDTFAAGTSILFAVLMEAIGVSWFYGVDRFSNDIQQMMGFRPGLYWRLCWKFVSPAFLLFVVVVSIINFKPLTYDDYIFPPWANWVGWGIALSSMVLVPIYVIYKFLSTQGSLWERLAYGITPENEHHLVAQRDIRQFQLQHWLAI

| SMILES | IC50 [1] [nM] | IC50 [2] [nM] | IC50 [3] [nM] | IC50 [4] [nM] |
| --- | --- | --- | --- | --- |
| COC(=O)[C@H]1[C@@H](c2ccc(F)cc2)C[C@H]2CC[C@H]1N2C | 834 | 759 |  |  |
| CSCCSCCC(=O)OC[C@@H]1C2CCC(C[C@@H]1c1ccc(F)cc1)N2C (stereo partly specified) | 16.3 | 28.5 | 0.227 | 5.69 |
